We go through twelve compounds from article PMC4264242, “Androgen Receptor Antagonists and Anti-Prostate Cancer Activities of Some Newly Synthesized Substituted Fused Pyrazolo-, Triazolo- and Thiazolo-Pyrimidine Derivatives” (International Journal of Molecular Sciences, 2014).

In one experiment the target is T1, human androgen receptor (Homo sapiens, UniProt P10275).
T1 construct: expressed in transfected cells
T1 sequence (P10275 1-920): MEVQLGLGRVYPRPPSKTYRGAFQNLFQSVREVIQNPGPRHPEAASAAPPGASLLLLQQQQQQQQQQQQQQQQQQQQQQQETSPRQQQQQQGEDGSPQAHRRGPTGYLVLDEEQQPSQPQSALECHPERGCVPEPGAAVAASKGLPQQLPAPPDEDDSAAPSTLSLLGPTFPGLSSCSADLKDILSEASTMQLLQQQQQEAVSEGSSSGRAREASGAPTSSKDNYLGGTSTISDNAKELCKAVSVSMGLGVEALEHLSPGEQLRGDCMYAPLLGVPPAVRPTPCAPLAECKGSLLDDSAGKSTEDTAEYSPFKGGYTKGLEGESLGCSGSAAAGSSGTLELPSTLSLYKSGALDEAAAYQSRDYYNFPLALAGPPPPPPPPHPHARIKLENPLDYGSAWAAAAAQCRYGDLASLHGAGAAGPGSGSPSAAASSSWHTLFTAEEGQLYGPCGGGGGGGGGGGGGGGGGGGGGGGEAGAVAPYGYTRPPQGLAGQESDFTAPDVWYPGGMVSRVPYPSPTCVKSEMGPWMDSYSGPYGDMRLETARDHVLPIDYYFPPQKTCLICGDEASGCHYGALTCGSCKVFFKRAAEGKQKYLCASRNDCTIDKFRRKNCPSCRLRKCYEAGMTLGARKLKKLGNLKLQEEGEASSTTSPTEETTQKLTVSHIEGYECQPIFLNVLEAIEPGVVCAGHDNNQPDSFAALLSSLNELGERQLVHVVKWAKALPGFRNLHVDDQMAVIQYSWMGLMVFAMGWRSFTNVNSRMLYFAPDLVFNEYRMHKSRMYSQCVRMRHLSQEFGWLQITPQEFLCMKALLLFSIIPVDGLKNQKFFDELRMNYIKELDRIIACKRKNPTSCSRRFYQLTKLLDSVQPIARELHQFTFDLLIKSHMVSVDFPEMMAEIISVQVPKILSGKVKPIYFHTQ
Kind of experiment: In vitro androgen receptor antagonistic activity, DHT-induced MMTV-luciferase reporter assay in AR/CHO#3 cells. The class given is cell-based. The following applies: 0.3 nM DHT. The method, then: Chinese Hamster Ovary (CHO) Cells Stably Transfected with Human Androgen Receptor Gene and Mouse Mammary Tumor Virus (MMTV)-Luciferase Reporter Gene or SV40-Luciferase Gene: CHO cells were maintained in alpha-modified Eagle’s medium supplemented with 10% fetal bovine serum (FBS). The culture medium of neomycin-resistant clone cells was supplemented with 10% dextran-coated charcoal-stripped FBS (DCC-FBS) and […] of neomycin. The CHO cells were transfected at 40%–70% confluence in 10-cm petri dishes with a total of […] DNA (plasmide mammalian neow luciferase, (pMAMneoLUC)); Mouse mammary tumor virus (MMTV)-luciferase reporter plasmid and pSG5-hAR; human androgen receptor expression plasmid, or Simian vacuolating virus 40 (SV40-LUC); SV40-luciferase reporter plasmid containing neomycin resistant gene) by calcium phosphate mediated transfection. The stable transfected cells were selected in the culture medium supplemented with neomycin. The selected clone was designated as AR/CHO#3 (human AR gene and MMTV luciferase reporter gene integrated CHO cell) or SV/CHO#10 (SV-40-luciferase reporter gene integrated CHO cell), respectively.
The stable transfected AR/CHO#3 or SV/CHO#10 cells were plated onto 96-well luminoplates (Packard, Palo Alto, CA, USA) at a density of 2 × 10^4 cells/well, respectively.
Four to eight hours later, the medium was changed to a medium containing DMSO, 0.3 nM of DHT, or 0.3 nM of DHT, and the tested compound. At the end of incubation, the medium was removed and the cells were lysed with […] of lysis buffer (25 mM Tris–HCl (pH 7.8), 2 mM dithiothreitol, 2 mM 1,2-cyclo-hexanediamine-tetraacetic acid, 10% glycerol and 1% Triton X-100). Luciferase substrate (20 mM Tris–HCl (pH 7.8), 1.07 mM magnesium carbonate basic (MgCO3)4Mg(OH)2·5H2O, 2.67 mM MgSO4·7H2O, 0.1 mM ethylenediaminetetraacetic acid (EDTA), 33.3 mM dithiothreitol, 0.27 mM CoA, 0.47 mM luciferin, 0.53 mM ATP) was added, and luciferase activity was measured with a ML3000 luminometer (Dynatech Laboratories, El Paso, TX, UAS). AR antagonistic activities were calculated by the formula below: AR antagonistic activity (%) = 100 (I − X) / (I − B) (1) I: (luciferase activity of AR/CHO#3)/(luciferase activity of SV/CHO#10) in the presence of 0.3 nM of DHT, B: (luciferase activity of AR/CHO#3)/(luciferase activity of SV/CHO#10) in the presence of DMSO, X: (luciferase activity of AR/CHO#3)/(luciferase activity of SV/CHO#10) in the presence of 0.3 nM of DHT and the tested compound.
The concentration of compounds showing 50% AR antagonistic activity, or IC50 values, was obtained by nonlinear analysis using a statistical analysis system (SAS).

Experiment [1] concerns the target T2, wild type AR in PC-3 cells (Homo sapiens, UniProt P10275).
T2 construct: expressed in transfected cells; host or cells: PC-3 cells (lack endogenous functional AR), transient transfection with SuperFect
T2 sequence (P10275 1-920): T1 sequence (P10275 1-920)
Kind of experiment: Anti-prostate cancer screening, anti-androgenic bioassay (wild type AR transactivation) in PC-3 cells. As to conditions: PC-3 cells transfected with wild type AR, 1 nM DHT, 24 h. The class given is cell-based. The method, then: Human prostate cancer LNCaP and PC-3 cells were maintained in RPMI medium and Dulbecco’s minimum essential medium (DMEM), respectively. Both media were supplemented with penicillin (25 units/mL), streptomycin ([…]), and 10% fetal calf serum. For the androgen receptor transactivation assay, an androgen-dependent reporter gene transcription test was employed as the primary screening for potential anti-androgen identification. This assay was first performed in LNCaP cells, which express a clinically relevant mutant AR. […] Wild type AR transactivation assay was performed in PC-3 host cells, which lack an endogenous, functional AR. The method and conditions of cell and gene transfection have been described previously. In brief, cells were plated in 24-well tissue culture dishes for 24 (PC-3 cells) or 48 (LNCaP cells) h prior to transfection. Subsequently, LNCaP cells were transfected with a reporter gene, MMTV-luciferase, which contains a MMTV-long terminal repeat (LTR) promoter and an androgen receptor binding element, and Renilla Luciferase Control Reporter Vectors 40 (PRL-SV40), which served as an internal control for transfection efficiency. PC-3 cells were transfected with a wild type AR expression plasmid, plasmide gene-5 androgen recptor (pSG5AR), in addition to the above-mentioned MMTV-luciferase reporter gene and PRL-SV40 internal control. SuperFect (Qiagen, Chatsworth, CA, USA) was employed as the transfection reagent following the manufacturer’s recommendations. At the end of a 5-h transfection, the medium was changed to DMEM or RPMI supplemented with 10% charcoal dextran-stripped, i.e., androgen-depleted, serum. After 24 h, the cells were treated with 1 nM of DHT and/or test compounds at the designated concentrations.
After 24 h the cells were harvested for luciferase activity assay using the Dual Luciferase Assay System (Promega, Madison, WI, USA.). The derived data was expressed as relative luciferase activity normalized to the internal luciferase control.

The mark [2] stands for this setting: AR/CHO#3 cells normalised to SV/CHO#10.

The structures appear in SMILES notation. Entries after “also recorded” stand apart in the source; their conditions may differ.

On to `NNc1nc2c(ccc3ccccc32)s1` [Compound 1, 1-(naphtho[1,2-d]thiazol-2-yl)hydrazine], for which the “IC50, in vitro androgen receptor antagonistic activity” value on human androgen receptor (setting [2]) was “Inactive”; against human androgen receptor (AR/CHO#3 cells normalised to SV/CHO#10, listed as compound 1) it was “devoid from any activities; also recorded: devoid of any activity”. Further, the “IC50 PC-3, anti-prostate cancer activity” value in experiment [1] is on record as “devoid from any activities; also recorded: Inactive”.
By IC50 is commonly meant the concentration needed to halve the response being measured. Low readings indicate greater potency in that assay, high ones weaker potency in that assay. Turning to `N#Cc1cnn(-c2nc3c(ccc4ccccc43)s2)c1N` [Compound 2, 2-[3-Amino-4-cyanopyrazol-2-yl]naphthalino[1,2-d]thiazole], the IC50 was 31 nM against human androgen receptor (setting [2]) and 157 nM in experiment [1].
Consider `Nc1ncnc2c1cnn2-c1nc2c(ccc3ccccc32)s1` [Compound 3], for which the IC50 is 37 nM against human androgen receptor (setting [2]) and 177 nM in experiment [1].
On to `Nc1n[nH]c2c1cnn2-c1nc2c(ccc3ccccc32)s1` [Compound 4], for which the IC50 on human androgen receptor (setting [2]) came to 34 nM; in experiment [1] it was 179 nM.
On to `Nc1nc(=S)[nH]c2c1cnn2-c1nc2c(ccc3ccccc32)s1` [Compound 5, 2-[6-Amino-3H-4-thiopyrimidino[4,5-c]pyrazol-2-yl]naphthalino[1,2-d]thiazole], for which the concentration for half-maximal inhibition (IC50) against human androgen receptor (setting [2]) worked out at 41 nM; in experiment [1], 190 nM.
Turning to `N=c1sc(=S)[nH]c2c1cnn2-c1nc2c(ccc3ccccc32)s1` [Compound 6, 2-[6-Imino-3H-4-thiothiazino[4,5-c]pyrazol-2-yl]naphthalino[1,2-d]thiazole], the IC50 at human androgen receptor (setting [2]) was 44 nM; in experiment [1], 201 nM.
In the case of `CCO/C=N\c1c(C#N)cnn1-c1nc2c(ccc3ccccc32)s1` [Compound 8, 2-[3-Ethylimidoformat-4-cyanopyrazol-2-yl]naphthalino[1,2-d]thiazole], the IC50 at human androgen receptor (setting [2]) stood at 77 nM; in experiment [1] it was 279 nM.
For `N#Cc1cnn(-c2nc3c(ccc4ccccc43)s2)c1/N=C\NN` [Compound 9, 2-[3-Imidoformic hydrazido-4-cyanopyrazol-2-yl]naphthalino[1,2-d]thiazole], in that order: 75 nM and 269 nM.
`Cc1nc2c3cnn(-c4nc5c(ccc6ccccc65)s4)c3ncn2n1` [Compound 10, 2-[6-Methyl[1,2,4]triazolo[2,3-c]pyrimidino[6,5-c]pyrazol-2-yl]naphthalino[1,2-d]thiazole]: the IC50 turned out to be 23 nM on human androgen receptor (setting [2]) and 109 nM in experiment [1].
Consider `N=c1c2cnn(-c3nc4c(ccc5ccccc54)s3)c2ncn1NC(=O)c1ccccc1` [Compound 11], for which the values for the IC50 (at human androgen receptor (setting [2]); in experiment [1]) were 39 nM and 180 nM, respectively.
As for `CCOC1SCC(=O)N1c1c(C#N)cnn1-c1nc2c(ccc3ccccc32)s1` (stereo not shown) [Compound 12, 2-[3-(2-Ethoxy-4-oxo-5-dihydro-1,3-thiazol-3-yl)-4-cyanopyrazol-2-yl]-naphthalino[1,2-d]thiazole], the values for the IC50 (at human androgen receptor (setting [2]); in experiment [1]) were 91 nM and 289 nM, respectively.
For `CCOC1SCC2NC(=O)c3cnn(-c4nc5c(ccc6ccccc65)s4)c3N21` (stereo not shown) [Compound 13, 2-[3-Ethoxy-5-dihydro-6H-7-oxo-[1,3]thiazolo[3,4-b]pyrimidino[4,5-c]pyrazol-2-yl]naphthalino[1,2-d]thiazole], in that order: 29 nM and 146 nM.
